In article PMC9738591, “N-[1,3-Dialkyl(aryl)-2-oxoimidazolidin-4-ylidene]-aryl(alkyl)sulphonamides as Novel Selective Human Cannabinoid Type 2 Receptor (hCB2R) Ligands; Insights into the Mechanism of Receptor Activation/Deactivation” (Molecules, 2022):

Columns and labels:
human CB2R = human CB2R (Homo sapiens, UniProt P34972); assay: Competition binding assay, displacement of [3H]-CP-55,940 from membranes of HEK-293 cells overexpressing CB2R; set-up: purchased Perkin-Elmer, Italy; host or cells: HEK-293 cells (membranes); conditions: for Ki: [3H]-CP-55,940 displacement, HEK-293 membranes, 90 min at 30 °C, Cheng-Prusoff, read-out: Ki hCB2R (µM ± S.E.); for inhibition at 10 µM: max conc. tested 10 µM, read-out: % Displacement/ Max Conc. Tested, hCB2R (converted)
Chain of human CB2R (P34972 whole entry): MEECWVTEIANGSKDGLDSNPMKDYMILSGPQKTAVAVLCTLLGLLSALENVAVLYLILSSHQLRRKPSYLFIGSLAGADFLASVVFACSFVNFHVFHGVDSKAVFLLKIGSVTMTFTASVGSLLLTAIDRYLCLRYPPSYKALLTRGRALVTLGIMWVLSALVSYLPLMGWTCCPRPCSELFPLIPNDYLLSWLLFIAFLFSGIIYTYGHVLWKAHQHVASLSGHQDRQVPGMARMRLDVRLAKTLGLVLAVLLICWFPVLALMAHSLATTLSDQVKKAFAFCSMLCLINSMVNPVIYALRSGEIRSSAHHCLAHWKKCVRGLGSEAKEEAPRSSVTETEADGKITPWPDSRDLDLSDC
Method: (§1) The binding affinities (Ki values) of the compounds for human recombinant hCB1R and hCB2R were determined as previously described, using SR144528 as a reference compound [30], and are reported in Table 1.
(§2) Compound affinity for CB1R and CB2R was measured as previously reported. […] Competition curves were performed by displacing [^3H]-CP-55 940 with increasing concentrations of compounds (0.1 nM–10 or 25 μM). […] All compounds were tested following the procedure described by the manufacturer (Perkin-Elmer, Italy). Displacement curves were generated by incubating drugs with [^3H]-CP-55 940 for 90 min at 30 °C. Ki values were calculated by applying the Cheng−Prusoff equation to the IC50 values for the displacement of the bound radioligand by increasing concentrations of the test compound. Data represent the mean values of three independent experiments performed in duplicate and are expressed as the average of Ki (µM) ± standard deviation. Data were analyzed using PRISM.9.3 software (GraphPad Software Inc, San Diego, CA, USA).

human recombinant CB1R = target: T1, human recombinant CB1R (Homo sapiens, UniProt P21554); assay: Competition binding assay, displacement of [3H]-CP-55,940 from membranes of HEK-293 cells overexpressing CB1R; conditions: for Ki: [3H]-CP-55,940 displacement, HEK-293 membranes, 90 min at 30 °C, Cheng-Prusoff, read-out: Ki hCB1R (µM ± S.E.); for inhibition at 10 µM: read-out: % Displacement/ Max. Conc. Tested, hCB1R
T1 construct: purchased Perkin-Elmer, Italy; host or cells: HEK-293 cells (membranes)
T1 sequence (P21554 whole entry): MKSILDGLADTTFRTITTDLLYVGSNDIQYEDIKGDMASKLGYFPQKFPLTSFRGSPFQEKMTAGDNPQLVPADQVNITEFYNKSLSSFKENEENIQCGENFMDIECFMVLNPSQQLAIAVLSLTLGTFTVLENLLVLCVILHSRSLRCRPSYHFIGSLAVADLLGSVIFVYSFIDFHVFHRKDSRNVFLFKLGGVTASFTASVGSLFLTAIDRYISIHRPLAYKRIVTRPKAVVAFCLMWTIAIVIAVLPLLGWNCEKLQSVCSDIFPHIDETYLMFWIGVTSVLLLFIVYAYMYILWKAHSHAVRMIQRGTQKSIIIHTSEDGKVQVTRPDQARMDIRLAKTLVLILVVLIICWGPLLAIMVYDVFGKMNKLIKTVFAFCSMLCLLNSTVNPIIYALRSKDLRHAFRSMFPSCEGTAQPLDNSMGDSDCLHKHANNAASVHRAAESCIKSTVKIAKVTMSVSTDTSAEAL
Method: as §1, §2

CC(C)(C)N1CC(=NS(=O)(=O)c2ccc(Br)cc2)N(CC2CC2)C1=O [Compound 10d, 4-Bromo-N-[1-tert-Butyl-3-cyclopropylmethyl-2-oxoimidazolidin-4-ylidene]benzenesulfonamide]
Ki (human CB2R): 0.83 ± 0.25 µM
inhibition at 10 µM (human CB2R): 77.2%
Ki (human recombinant CB1R): > 10 µM
inhibition at 10 µM (human recombinant CB1R): 22.2%
melting point: 98 to 98.5 °C

Cc1cc(C)c(S(=O)(=O)N=C2CN(C(C)(C)C)C(=O)N2CC2CC2)c(C)c1 [Compound 10f, N-[1-tert-Butyl-3-cyclopropylmethyl-2-oxoimidazolidin-4-ylidene]-2,4,6-trimethylbenzenesulfonamide]
Ki (human CB2R): 0.63 ± 0.14 µM
inhibition at 10 µM (human CB2R): 81.3%
Ki (human recombinant CB1R): > 10 µM
inhibition at 10 µM (human recombinant CB1R): 15.4%
melting point: 149 to 150 °C

COCCN1C(=O)N(C(C)(C)C)CC1=NS(C)(=O)=O [Compound 11a, N-[1-tert-Butyl-3-(2-methoxyethyl)-2-oxoimidazolidin-4-ylidene]methanesulfonamide]
Ki (human CB2R): > 10 µM
inhibition at 10 µM (human CB2R): 14.1%
Ki (human recombinant CB1R): > 10 µM
inhibition at 10 µM (human recombinant CB1R): 65.3%
melting point: 70.5 to 71 °C

COCCN1C(=O)N(C(C)(C)C)CC1=NS(=O)(=O)c1ccccc1 [Compound 11b, N-[1-tert-Butyl-3-(2-methoxyethyl)-2-oxoimidazolidin-4-ylidene]benzenesulfonamide]
Ki (human CB2R): > 10 µM
inhibition at 10 µM (human CB2R): 21.2%
Ki (human recombinant CB1R): > 10 µM
inhibition at 10 µM (human recombinant CB1R): 52.6%
melting point: 104.5 to 105 °C

COCCN1C(=O)N(C(C)(C)C)CC1=NS(=O)(=O)c1ccc(C)cc1 [Compound 11c, N-[1-tert-Butyl-3-(2-methoxyethyl)-2-oxoimidazolidin-4-ylidene]-4-methylbenzene-1-sulfonamide]
Ki (human CB2R): > 10 µM
inhibition at 10 µM (human CB2R): 33.4%
Ki (human recombinant CB1R): > 10 µM
inhibition at 10 µM (human recombinant CB1R): 57%
melting point: 106 to 107 °C

COCCN1C(=O)N(C(C)(C)C)CC1=NS(=O)(=O)c1ccc(Br)cc1 [Compound 11d, 4-Bromo-N-[1-tert-butyl-3-(2-methoxyethyl)-2-oxoimidazolidin-4-ylidene]benzenesulfonamide]
Ki (human CB2R): > 10 µM
inhibition at 10 µM (human CB2R): 42.7%
Ki (human recombinant CB1R): > 10 µM
inhibition at 10 µM (human recombinant CB1R): 50.1%
melting point: 103.5 to 104 °C

COCCN1C(=O)N(C(C)(C)C)CC1=NS(=O)(=O)c1cccc(Br)c1 [Compound 11e, 3-Bromo-N-[1-tert-butyl-3-(2-methoxyethyl)-2-oxoimidazolidin-4-ylidene]benzenesulfonamide]
Ki (human CB2R): > 10 µM
inhibition at 10 µM (human CB2R): 41.1%
Ki (human recombinant CB1R): > 10 µM
inhibition at 10 µM (human recombinant CB1R): 10%
melting point: 104 to 105 °C

COCCN1C(=O)N(C(C)(C)C)CC1=NS(=O)(=O)c1c(C)cc(C)cc1C [Compound 11f, N-[1-tert-Butyl-3-(2-methoxyethyl)-2-oxoimidazolidin-4-ylidene]-2,4,6-trimethylbenzene-1-sulfonamide]
Ki (human CB2R): 3.45 ± 0.95 µM
inhibition at 10 µM (human CB2R): 64.8%
Ki (human recombinant CB1R): > 10 µM
inhibition at 10 µM (human recombinant CB1R): 55.7%
melting point: 141 to 143.5 °C

COCCN1C(=O)N(C(C)(C)C)CC1=NS(=O)(=O)c1cccc2ccccc12 [Compound 11g, N-[1-tert-Butyl-3-(2-methoxyethyl)-2-oxoimidazolidin-4-ylidene]naphthalene-1-sulfonamide]
Ki (human CB2R): 1.66 ± 0.2 µM
inhibition at 10 µM (human CB2R): 78.7%
Ki (human recombinant CB1R): > 10 µM
inhibition at 10 µM (human recombinant CB1R): 13.5%
melting point: 110.5 to 111 °C

COCCN1C(=O)N(C(C)(C)C)CC1=NS(=O)(=O)c1ccc2ccccc2c1 [Compound 11h, N-[1-tert-Butyl-3-(2-methoxyethyl)-2-oxoimidazolidin-4-ylidene]naphthalene-2-sulfonamide]
Ki (human CB2R): > 10 µM
inhibition at 10 µM (human CB2R): 40.1%
Ki (human recombinant CB1R): > 10 µM
inhibition at 10 µM (human recombinant CB1R): 45.3%
melting point: 129.5 to 130.5 °C

Cc1ccc(S(=O)(=O)N=C2CN(C34CC5CC(CC(C5)C3)C4)C(=O)N2CC2CC2)cc1 [Compound 12c, N-[1-Adamant-1-yl-3-cyclopropylmethyl-2-oxoimidazolidin-4-ylidene]-4-methyl-1-benzenesulfonamide]
Ki (human CB2R): > 10 µM
inhibition at 10 µM (human CB2R): 20.6%
Ki (human recombinant CB1R): > 10 µM
inhibition at 10 µM (human recombinant CB1R): 34.6%
melting point: 188.5 to 189 °C

O=C1N(CC2CC2)C(=NS(=O)(=O)c2ccc(Br)cc2)CN1C12CC3CC(CC(C3)C1)C2 [Compound 12d, N-[1-Adamant-1-yl-3-cyclopropylmethyl-2-oxoimidazolidin-4-ylidene]-4-bromo-1-benzenesulfonamide]
Ki (human CB2R): > 10 µM
inhibition at 10 µM (human CB2R): 32.5%
Ki (human recombinant CB1R): > 10 µM
inhibition at 10 µM (human recombinant CB1R): 47.9%
melting point: 176 to 176.5 °C

Cc1cc(C)c(S(=O)(=O)N=C2CN(C34CC5CC(CC(C5)C3)C4)C(=O)N2CC2CC2)c(C)c1 [Compound 12f, N-[1-Adamant-1-yl-3-cyclopropylmethyl-2-oxoimidazolidin-4-ylidene]-2,4,6-trimethyl-1-benzenesulfonamide]
Ki (human CB2R): > 10 µM
inhibition at 10 µM (human CB2R): 40.2%
Ki (human recombinant CB1R): > 10 µM
inhibition at 10 µM (human recombinant CB1R): 59.2%
melting point: 166.5 to 167.5 °C

O=C1N(CC2CC2)/C(=N/S(=O)(=O)c2cccc3ccccc23)CN1C12CC3CC(CC(C3)C1)C2 [Compound 12g, N-[1-Adamant-1-yl-3-cyclopropylmethyl-2-oxoimidazolidin-4-ylidene]naphtalene-1-sulfonamide]
Ki (human CB2R): > 10 µM
inhibition at 10 µM (human CB2R): 45.6%
Ki (human recombinant CB1R): > 10 µM
inhibition at 10 µM (human recombinant CB1R): 12.8%
melting point: 188.5 to 189 °C

O=C1N(CC2CC2)/C(=N/S(=O)(=O)c2ccc3ccccc3c2)CN1C12CC3CC(CC(C3)C1)C2 [Compound 12h, N-[1-Adamant-1-yl-3-cyclopropylmethyl-2-oxoimidazolidin-4-ylidene]naphtalene-2-sulfonamide]
Ki (human CB2R): > 10 µM
inhibition at 10 µM (human CB2R): 17.7%
Ki (human recombinant CB1R): > 10 µM
inhibition at 10 µM (human recombinant CB1R): 38.5%
melting point: 167 to 167.5 °C
